Assay results published in PubChem BioAssay AID1259408 (Genetic Toxicology Data Bank (GENE-TOX), 2018).
The source made the active and inactive calls. The rule behind the calls is not given here.

System: GENE-TOX genotoxicity assays, various organisms and cells
Experiment: GENE-TOX mutagenicity studies
Conditions: for call: Assay Type: In vivo carcinogenicity studies
Text: GENE-TOX provides genetic toxicology (mutagenicity) test data from expert peer review of open scientific literature for more than 3,000 chemicals from the United States Environmental Protection Agency (EPA). GENE-TOX was established to select assay systems for evaluation, review data in the scientific literature, and recommend proper testing protocols and evaluation procedures for these systems.
GENE-TOX covers the years 1991 - 1998. It is no longer updated.
This is an archive assay for GENE-TOX mutagenicity studies.

[1] = Species/Cell Type: Mammalian polychromatic erythrocytes, Assay Type: Micronucleus test, chromosome aberrations, Assay Code: MNTT, Evaluation Type: Evaluation B (Post-1980)
[2] = Species/Cell Type: Bacillus subtilis (H17 vs M45), Assay Type: Rec-assay, spot test, DNA effects (bacterial DNA repair), Assay Code: REW-, Evaluation Type: Evaluation A (Pre-1980)
[3] = Species/Cell Type: Bacillus subtilis (H17 vs M45T), Assay Type: Rec-assay, spot test, DNA effects (bacterial DNA repair), Assay Code: REXT, Evaluation Type: Evaluation A (Pre-1980)
[4] = Species/Cell Type: Drosophila melanogaster, Assay Type: Sex-linked recessive lethal gene mutation, Assay Code: SRLT, Evaluation Type: Evaluation A (Pre-1980)
[5] = Species/Cell Type: Escherichia coli WP2, Assay Type: Tryptophan reverse gene mutation, Assay Code: WP2-, Evaluation Type: Evaluation A (Pre-1980)
[6] = Species/Cell Type: Nonhuman, Assay Code: CCGT, Evaluation Type: Evaluation A (Pre-1980)
[7] = Species/Cell Type: Salmonella typhimurium (one or more of the five standard strains: TA98, TA100, TA1535, TA1537, and TA1538), Assay Type: Histidine reverse gene mutation, Ames assay, Assay Code: SAL+*, Activation: With metabolic activation, Evaluation Type: Evaluation A (Pre-1980)
[8] = Species/Cell Type: Salmonella typhimurium (one or more of the five standard strains: TA98, TA100, TA1535, TA1537, and TA1538), Assay Type: Histidine reverse gene mutation, Ames assay, Assay Code: SALT, Evaluation Type: Evaluation A (Pre-1980)
[9] = Species/Cell Type: Human diploid fibroblasts, Assay Type: Unscheduled DNA synthesis (UDS) in vitro, DNA effects, Assay Code: UDH-, Evaluation Type: Evaluation A (Pre-1980)
[10] = Species/Cell Type: Saccharomyces cerevisiae, Assay Type: Mitotic recombination or gene conversion, Assay Code: YEC+, Evaluation Type: Evaluation A (Pre-1980)
[11] = Species/Cell Type: Nonhuman, Assay Type: Sister-chromatid exchange (SCE) in vitro, Assay Code: SC2+D, Dose Response: With dose response, Evaluation Type: Evaluation B (Post-1980)
[12] = Species/Cell Type: Rodents, Sex: Male, Assay Type: Dominant lethal test, Assay Code: DLT-, Evaluation Type: Evaluation A (Pre-1980)
[13] = Species/Cell Type: Salmonella typhimurium (one or more of the five standard strains: TA98, TA100, TA1535, TA1537, and TA1538), Assay Type: Histidine reverse gene mutation, Ames assay, Assay Code: SAL+, Evaluation Type: Evaluation A (Pre-1980)
[14] = Species/Cell Type: Saccharomyces cerevisiae, Assay Type: Forward and reverse gene mutation, mitotic recombination and gene conversion, host-mediated assay, Assay Code: HME+, Evaluation Type: Evaluation A (Pre-1980)

CC(=O)c1cc(O)c(C(C)C)c2cc(C)c(-c3c(C)cc4c(C(C)C)c(O)c(O)c(C=O)c4c3O)c(O)c12
mutagenic call [1]: no conclusion
mutagenic call (Species/Cell Type: Nonhuman, Assay Type: Sister-chromatid exchange (SCE) in vivo, Assay Code: SC3+D, Dose Response: With dose response, Evaluation Type: Evaluation B (Post-1980)): active; positive

O=C(N[C@H](CO)[C@H](O)c1ccc([N+](=O)[O-])cc1)C(Cl)Cl
mutagenic call (Species/Cell Type: Arabidopsis species, Assay Type: Gene mutation, Assay Code: ARM-, Evaluation Type: Evaluation A (Pre-1980)): inactive; negative
mutagenic call [2]: inactive; negative
mutagenic call [3]: no conclusion
mutagenic call [4]: no conclusion
mutagenic call [5]: inactive; negative
mutagenic call (Species/Cell Type: Escherichia coli polA (W3110 vs P3478), Assay Type: Rec-assay, DNA effects (bacterial DNA repair), Assay Code: RE2-, Evaluation Type: Evaluation A (Pre-1980)): inactive; negative
mutagenic call (Species/Cell Type: Escherichia coli polA (W3119 vs P3478), Assay Type: Rec-assay, DNA effects (bacterial DNA repair), Assay Code: RE1-, Evaluation Type: Evaluation A (Pre-1980)): inactive; negative
call [6]: no conclusion
mutagenic call (Species/Cell Type: Rodents, Sex: Male, Assay Type: Dominant lethal test, Assay Code: DLT+, Evaluation Type: Evaluation A (Pre-1980)): active; positive
mutagenic call (Species/Cell Type: Salmonella typhimurium (one or more of the five standard strains: TA98, TA100, TA1535, TA1537, and TA1538), Assay Type: Histidine reverse gene mutation, Ames assay, Assay Code: SAL-, Evaluation Type: Evaluation A (Pre-1980)): inactive; negative

OCN1CCN(CO)C1=S
mutagenic call [1]: no conclusion

O=NN1CCC(O)CC1
mutagenic call (Species/Cell Type: Drosophila melanogaster, Assay Type: Aneuploidy, partial sex chromosome loss, chromosome aberrations, Assay Code: DAPT, Evaluation Type: Evaluation A (Pre-1980)): no conclusion
mutagenic call (Species/Cell Type: Drosophila melanogaster, Assay Type: Aneuploidy, whole sex chromosome loss, chromosome aberrations, Assay Code: DACT, Evaluation Type: Evaluation A (Pre-1980)): no conclusion
mutagenic call [4]: no conclusion
mutagenic call [7]: active; positive

CCN(CCCCO)N=O
mutagenic call [8]: no conclusion

CCCN(N=O)C(N)=O
mutagenic call [9]: inactive; negative
call (Species/Cell Type: Nonhuman, Assay Code: CCG+L, Evaluation Type: Evaluation A (Pre-1980)): active; positive
mutagenic call [10]: active; positive

CCCCc1ccc(C(=O)O)nc1
mutagenic call [2]: inactive; negative

c1ccc2nc3c(ccc4ccccc43)cc2c1
mutagenic call [11]: active; positive

Nc1ccccc1N
mutagenic call (Species/Cell Type: Allium cepa, Assay Type: Chromosome aberrations, Assay Code: ALC+, Evaluation Type: Evaluation A (Pre-1980)): active; positive
mutagenic call (Species/Cell Type: Mammalian polychromatic erythrocytes, Assay Type: Micronucleus test, chromosome aberrations, Assay Code: MNT+, Evaluation Type: Evaluation B (Post-1980)): active; positive
mutagenic call (Species/Cell Type: Neurospora crassa, Assay Type: Aneuploidy, chromosome aberrations, Assay Code: NEN-, Evaluation Type: Evaluation A (Pre-1980)): inactive; negative
mutagenic call [12]: inactive; negative

O=NN1CCCC(O)C1 (configuration not stated)
mutagenic call [7]: active; positive

COc1ccc(C(=C(c2ccc(OC)cc2)c2ccc(OC)cc2)c2ccc(OC)cc2)cc1
mutagenic call [8]: no conclusion

CC(C)(C)N(CCCC(=O)O)N=O
mutagenic call [8]: no conclusion

CCC[C@@H]1C[C@@H](C(=O)N[C@@H]([C@H]2O[C@H](SC)[C@H](O)[C@@H](O)[C@H]2O)[C@@H](C)O)N(C)C1
mutagenic call [3]: no conclusion

CCCCN(CCO)N=O
mutagenic call [13]: active; positive

[Se]
mutagenic call (Species/Cell Type: Human lymphocytes, Assay Type: Sister-chromatid exchange (SCE) in vitro, Assay Code: SCL+D, Dose Response: With dose response, Evaluation Type: Evaluation B (Post-1980)): active; positive
mutagenic call (Species/Cell Type: Human, Assay Type: Sister-chromatid exchange (SCE) in vitro, Assay Code: SC1+D, Dose Response: With dose response, Evaluation Type: Evaluation B (Post-1980)): active; positive

Nc1cccc2cc3ccccc3nc12
mutagenic call (Species/Cell Type: Saccharomyces cerevisiae, Assay Type: Forward gene mutation, Assay Code: YEFT, Evaluation Type: Evaluation A (Pre-1980)): no conclusion
mutagenic call (Species/Cell Type: Saccharomyces cerevisiae, Assay Type: Reverse gene mutation, Assay Code: YERT, Evaluation Type: Evaluation A (Pre-1980)): no conclusion

CCN(Cc1ccccc1)c1ccc(C(=C2C=CC(=[N+](CC)Cc3ccccc3)C=C2)c2ccc(S(=O)(=O)O)cc2S(=O)(=O)[O-])cc1
mutagenic call (Species/Cell Type: Bacillus subtilis (H17 vs M45), Assay Type: Rec-assay, spot test, DNA effects (bacterial DNA repair), Assay Code: REWT, Evaluation Type: Evaluation A (Pre-1980)): no conclusion

O=C1CN(/N=C/c2ccc([N+](=O)[O-])o2)C(=O)N1
mutagenic call (Species/Cell Type: Escherichia coli WP2, Assay Type: Tryptophan reverse gene mutation, Assay Code: WP2+, Evaluation Type: Evaluation A (Pre-1980)): active; positive
mutagenic call (Species/Cell Type: Escherichia coli WP2 UVRA, Assay Type: Tryptophan reverse gene mutation, Assay Code: WPU+D, Dose Response: With dose response, Evaluation Type: Evaluation A (Pre-1980)): active; positive
mutagenic call [9]: inactive; negative
mutagenic call (Species/Cell Type: Human, Assay Type: Sister-chromatid exchange (SCE) in vitro, Assay Code: SC1T, Evaluation Type: Evaluation B (Post-1980)): no conclusion
mutagenic call (Species/Cell Type: Human, Sex: Male, Assay Type: Sperm morphology, Assay Code: SPHT, Evaluation Type: Evaluation A (Pre-1980)): no conclusion
mutagenic call (Species/Cell Type: Mammalian polychromatic erythrocytes, Assay Type: Micronucleus test, chromosome aberrations, Assay Code: MNT+, Evaluation Type: Evaluation A (Pre-1980)): active; positive
mutagenic call (Species/Cell Type: Mouse, Sex: Male, Assay Type: Sperm morphology, Assay Code: SPI-, Evaluation Type: Evaluation A (Pre-1980)): inactive; negative
call [6]: no conclusion
mutagenic call [11]: active; positive
mutagenic call (Species/Cell Type: Nonhuman, Assay Type: Sister-chromatid exchange (SCE) in vivo, Assay Code: SC3+, Evaluation Type: Evaluation B (Post-1980)): active; positive
mutagenic call [12]: inactive; negative
mutagenic call [14]: active; positive
mutagenic call (Species/Cell Type: Saccharomyces cerevisiae, Assay Type: Mitotic recombination or gene conversion, Assay Code: YEC+*, Activation: With metabolic activation, Evaluation Type: Evaluation A (Pre-1980)): active; positive
mutagenic call [13]: active; positive
mutagenic call (Species/Cell Type: Salmonella typhimurium and Saccharomyces cerevisiae, Assay Type: Forward and reverse gene mutation, mitotic recombination and gene conversion, DNA effects, body fluid assay, Assay Code: BFG+, Evaluation Type: Evaluation A (Pre-1980)): active; positive

CNC(=O)Oc1ccccc1C(C)C
mutagenic call (Species/Cell Type: Bacillus subtilis (H17 vs M45T), Assay Type: Rec-assay, spot test, DNA effects (bacterial DNA repair), Assay Code: REX-, Evaluation Type: Evaluation A (Pre-1980)): inactive; negative
mutagenic call [5]: inactive; negative

COc1ccc2nc3cc(Cl)ccc3c(NCCCNCCCl)c2c1
mutagenic call (Species/Cell Type: Chinese hamster ovary (CHO) cells, Assay Type: Forward gene mutation at the HPRT locus, Assay Code: CHO+D, Dose Response: With dose response, Evaluation Type: Evaluation A (Pre-1980)): active; positive
mutagenic call [9]: inactive; negative
call [6]: no conclusion
mutagenic call [14]: active; positive
mutagenic call [10]: active; positive
mutagenic call [13]: active; positive

O=NN1CCCN(N=O)CC1
mutagenic call [7]: active; positive

COc1ccc(-c2oc3c(OC)c(OC)c(OC)cc3c(=O)c2OC)cc1
mutagenic call (Species/Cell Type: Bacillus subtilis (H17 vs M45), Assay Type: Rec-assay, spot test, DNA effects (bacterial DNA repair), Assay Code: REW+, Evaluation Type: Evaluation A (Pre-1980)): active; positive
